In PubChem BioAssay AID330 (DTP/NCI, 2004):
Several values for one entry are separate records, joined by “and”; a condition that tells them apart may be missing. Identical values can stand only once. Toxic doses and inconclusive results are not listed. The calls were made as follows: active = survival T/C of 150% or more; inactive = T/C below 125% in these data.

System: P388 leukemia ip, CD2F1 mice, survival T/C
Experiment: NCI In Vivo Anticancer Drug Screen. Data for tumor model P388 Leukemia (intraperitoneal) in CD2F1 (CDF1) mice
Settings: endpoint: median survival time, higher = longer survival
Summary of the method: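 Mice carrying the transplanted tumor received test compound or vehicle. Survival was recorded in each group, and the value is the treated-group measurement divided by that of the vehicle-treated control group.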

[1] = dose: 30.0 mg/kg/injection, schedule: Q01DX005 (ip), vehicle: saline with Tween-80
[2] = dose: 60.0 mg/kg/injection, schedule: Q01DX005 (ip), vehicle: saline with Tween-80
[3] = dose: 120.0 mg/kg/injection, schedule: Q01DX005 (ip), vehicle: saline with Tween-80
[4] = dose: 240.0 mg/kg/injection, schedule: Q01DX005 (ip), vehicle: saline with Tween-80
[5] = dose: 15.0 mg/kg/injection, schedule: Q01DX005 (ip), vehicle: saline with Tween-80
[6] = dose: 50.0 mg/kg/injection, schedule: Q01DX009 (ip), vehicle: Klucel (hydroxypropylcellulose) (HPC)
[7] = dose: 100.0 mg/kg/injection, schedule: Q01DX009 (ip), vehicle: Klucel (hydroxypropylcellulose) (HPC)
[8] = dose: 200.0 mg/kg/injection, schedule: Q01DX009 (ip), vehicle: Klucel (hydroxypropylcellulose) (HPC)
[9] = dose: 50.0 mg/kg/injection, schedule: Q01DX009 (ip), vehicle: saline with Tween-80
[10] = dose: 100.0 mg/kg/injection, schedule: Q01DX009 (ip), vehicle: saline with Tween-80
[11] = dose: 200.0 mg/kg/injection, schedule: Q01DX009 (ip), vehicle: saline with Tween-80
[12] = dose: 100.0 mg/kg/injection, schedule: Q04DX003 (ip), vehicle: saline

Measured: T/C

COc1c2c(c(OC)c3c1C(=O)c1ccccc1C3=O)C(=O)CCC2
inactive: [1] 93 % of control | [2] 91 % of control | [3] 87 % of control | [4] 88 % of control

O=C1OC2(C=C1Br)CCC21C=C(Br)C(=O)O1 (stereo unspecified)
inactive: dose: 25.0 mg/kg/injection, schedule: Q01DX009 (ip), vehicle: Klucel (hydroxypropylcellulose) (HPC) 98 % of control

O=NN(C(=O)NC1CCC(C(=O)O)CC1)C1CCC(C(=O)O)CC1 (stereo unspecified)
inactive: dose: 25.0 mg/kg/injection, schedule: Q01DX001 (ip), vehicle: distilled water + Tween-80 93 % of control | dose: 50.0 mg/kg/injection, schedule: Q01DX001 (ip), vehicle: distilled water + Tween-80 93 % of control | dose: 100.0 mg/kg/injection, schedule: Q01DX001 (ip), vehicle: distilled water + Tween-80 93 % of control | dose: 200.0 mg/kg/injection, schedule: Q01DX001 (ip), vehicle: distilled water + Tween-80 101 % of control

Cc1ccc(/C=C2/N=C([Se])N(C)C2=O)cc1
inactive: [5] 100 % of control | [1] 95 % of control | [2] 101 % of control | [3] 86 % of control

O=C(Nc1ccccc1Cl)Oc1ccc(C(=O)c2ccccc2)cc1
inactive: [5] 100 % of control | [1] 97 % of control | [2] 90 % of control

CC1(c2ccccc2)OC(=O)C=CC1=O (stereo unspecified)
inactive: [2] 110 % of control | [3] 104 % of control | [4] 108 % of control

N#CC1C(=O)NC(=O)C(C#N)C1c1c(Cl)cccc1Cl (stereo unspecified)
inactive: [6] 101 % of control | [7] 99 % of control | [8] 99 % of control

CCNC(=O)N(CC(N)=O)c1ncc([N+](=O)[O-])s1
inactive: dose: 6.25 mg/kg/injection, schedule: Q01DX001 (ip), vehicle: saline 105 % of control | dose: 12.5 mg/kg/injection, schedule: Q01DX001 (ip), vehicle: saline 103 % of control | dose: 25.0 mg/kg/injection, schedule: Q01DX001 (ip), vehicle: saline 104 % of control | dose: 50.0 mg/kg/injection, schedule: Q01DX001 (ip), vehicle: saline 100 % of control and 103 % of control | dose: 100.0 mg/kg/injection, schedule: Q01DX001 (ip), vehicle: saline 106 % of control and 97 % of control

COc1ccc(CCNC2=CNCC2)cc1OC
inactive: dose: 50.0 mg/kg/injection, schedule: Q01DX005 (ip), vehicle: saline 101 % of control | dose: 100.0 mg/kg/injection, schedule: Q01DX005 (ip), vehicle: saline 98 % of control | dose: 200.0 mg/kg/injection, schedule: Q01DX005 (ip), vehicle: saline 95 % of control

Fc1ccccc1C=NC12CC3CC(CC(C3)C1)C2
inactive: [9] 100 % of control | [10] 102 % of control | [11] 108 % of control

CCOC(=O)/C=C/c1nc(C(=O)OCC)c(C)c(=O)[nH]1
inactive: dose: 1.0 mg/kg/injection, schedule: Q01DX009 (ip), vehicle: other 120 % of control | dose: 2.0 mg/kg/injection, schedule: Q01DX009 (ip), vehicle: other 99 % of control | dose: 4.0 mg/kg/injection, schedule: Q01DX009 (ip), vehicle: other 99 % of control | dose: 8.0 mg/kg/injection, schedule: Q01DX009 (ip), vehicle: other 107 % of control | dose: 16.0 mg/kg/injection, schedule: Q01DX009 (ip), vehicle: other 104 % of control and 95 % of control | dose: 32.0 mg/kg/injection, schedule: Q01DX009 (ip), vehicle: other 95 % of control | dose: 64.0 mg/kg/injection, schedule: Q01DX009 (ip), vehicle: other 92 % of control | dose: 128.0 mg/kg/injection, schedule: Q01DX009 (ip), vehicle: other 95 % of control | dose: 200.0 mg/kg/injection, schedule: Q01DX009 (ip), vehicle: distilled water + Tween-80 99 % of control | dose: 256.0 mg/kg/injection, schedule: Q01DX009 (ip), vehicle: other 113 % of control | dose: 400.0 mg/kg/injection, schedule: Q01DX009 (ip), vehicle: distilled water + Tween-80 100 % of control

COC(=O)C1(C(=O)OC)C2C=CCC21 (stereo unspecified)
inactive: [9] 96 % of control | [10] 102 % of control | [11] 104 % of control

C=C1CC(C)(Cl)C(Cl)CC1/C=C/Cl (stereo unspecified)
inactive: dose: 1.87 mg/kg/injection, schedule: Q01DX009 (ip), vehicle: saline + alcohol 100 % of control | dose: 3.75 mg/kg/injection, schedule: Q01DX009 (ip), vehicle: saline + alcohol 99 % of control | dose: 7.5 mg/kg/injection, schedule: Q01DX009 (ip), vehicle: saline + alcohol 103 % of control | dose: 15.0 mg/kg/injection, schedule: Q01DX009 (ip), vehicle: saline + alcohol 100 % of control

C[C@@]1(CO)CCc2c(c3ccccc3oc2=O)O1
inactive: [2] 94 % of control | [3] 92 % of control | [4] 90 % of control

CC(=O)[O][Hg][CH]1C2CC3C(C2OC(C)=O)C31 (stereo unspecified)
inactive: dose: 6.25 mg/kg/injection, schedule: Q01DX009 (ip), vehicle: saline with Tween-80 105 % of control | dose: 12.5 mg/kg/injection, schedule: Q01DX009 (ip), vehicle: saline with Tween-80 112 % of control

O=C1CCCC(C(Sc2ccccc2)(Sc2ccccc2)Sc2ccccc2)C1 (stereo unspecified)
inactive: [6] 99 % of control | [7] 95 % of control | [8] 93 % of control

O=C(CCS(=O)(=O)CCC(=O)c1cccs1)c1cccs1
inactive: [12] 90 % of control | dose: 200.0 mg/kg/injection, schedule: Q04DX003 (ip), vehicle: saline 90 % of control | dose: 400.0 mg/kg/injection, schedule: Q04DX003 (ip), vehicle: saline 90 % of control

CCCC1CC2=C(C(=O)c3c(OC)cccc3C2=O)C(O)(C(F)(F)F)O1 (stereo unspecified)
inactive: dose: 100.0 mg/kg/injection, schedule: Q01DX001 (ip), vehicle: Klucel (hydroxypropylcellulose) (HPC) 103 % of control | dose: 200.0 mg/kg/injection, schedule: Q01DX001 (ip), vehicle: Klucel (hydroxypropylcellulose) (HPC) 109 % of control | dose: 400.0 mg/kg/injection, schedule: Q01DX001 (ip), vehicle: Klucel (hydroxypropylcellulose) (HPC) 94 % of control

O=C(Cc1ccccc1)NCCN1CCNCC1
inactive: dose: 100.0 mg/kg/injection, schedule: Q01DX001 (ip), vehicle: saline with Tween-80 105 % of control | dose: 200.0 mg/kg/injection, schedule: Q01DX001 (ip), vehicle: saline with Tween-80 108 % of control | dose: 400.0 mg/kg/injection, schedule: Q01DX001 (ip), vehicle: saline with Tween-80 96 % of control

CC(=O)O/N=C/c1cc[n+](C)cc1
inactive: dose: 25.0 mg/kg/injection, schedule: Q04DX003 (ip), vehicle: saline 105 % of control | dose: 50.0 mg/kg/injection, schedule: Q04DX003 (ip), vehicle: saline 101 % of control | [12] 90 % of control

NOCc1cccc(CON)c1
inactive: [9] 91 % of control

O=[N+]([O-])c1nccn1CCCl
inactive: dose: 12.5 mg/kg/injection, schedule: Q01DX009 (ip), vehicle: distilled water + Tween-80 95 % of control | dose: 25.0 mg/kg/injection, schedule: Q01DX009 (ip), vehicle: distilled water + Tween-80 113 % of control | dose: 50.0 mg/kg/injection, schedule: Q01DX009 (ip), vehicle: distilled water + Tween-80 100 % of control

CCCC(NC(=O)c1ccccc1)C(=O)O (stereo unspecified)
inactive: [9] 100 % of control | [10] 99 % of control | [11] 99 % of control

CCN1C=C(C(=O)OC)C(N)=C(C#N)/C1=C\C=C(/C#N)C(=O)OC
inactive: dose: 100.0 mg/kg/injection, schedule: Q04DX002 (ip), vehicle: Klucel (hydroxypropylcellulose) (HPC) 92 % of control | dose: 200.0 mg/kg/injection, schedule: Q04DX002 (ip), vehicle: Klucel (hydroxypropylcellulose) (HPC) 101 % of control | dose: 400.0 mg/kg/injection, schedule: Q04DX002 (ip), vehicle: Klucel (hydroxypropylcellulose) (HPC) 89 % of control
